Results as given in PubChem BioAssay AID1963837 (Molecular Pharmacology Branch, DTP, NCI, 2024).

Test system: 843126-344-R-J1-PDC complex spheroid viability
Experiment: Anticancer human tumor 843126-344-R-J1-PDC patient-derived melanoma cell line growth inhibition [POLQ]
Conditions: for IC50: curve of first compound; for viability, T/C: stronger effect = lower value; active = viability on the fitted dose curve at most 10% of control; inactive = the rest
How it was run: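 Three-cell-type spheroids modelling solid tumor plus stroma served as the readout system; POL inhibitors were tested individually and in combination, concentration ranges set by clinical Cmax where known.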

[1] = second compound 0.0316 µM, first compound 0.0316 µM
[2] = second compound 0.0316 µM, first compound 0.1 µM
[3] = second compound 0.1 µM, first compound 0.0316 µM
[4] = second compound 0.1 µM, first compound 0.1 µM
[5] = second compound 0.316 µM, first compound 0.0316 µM
[6] = second compound 0.316 µM, first compound 0.1 µM
[7] = second compound 1 µM, first compound 0.0316 µM
[8] = second compound 1 µM, first compound 0.1 µM
[9] = second compound 3.16 µM, first compound 0.0316 µM
[10] = second compound 3.16 µM, first compound 0.1 µM
[11] = second compound 10 µM, first compound 0.0316 µM
[12] = second compound 10 µM, first compound 0.1 µM
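For viability, T/C in this document: spheroids exposed to drugs for seven days before readout.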

Cn1ncnc1[C@H]1c2n[nH]c(=O)c3cc(F)cc(c23)N[C@@H]1c1ccc(F)cc1 + Nc1ccc(C#CCN(C(=O)Cc2ncc(C(F)(F)F)cc2C(F)(F)F)c2ccc(F)cc2)nn1
> 0.1 µM: IC50 (second compound 0.0316 µM) | IC50 (second compound 0.1 µM) | IC50 (second compound 0.316 µM) | IC50 (second compound 1 µM) | IC50 (second compound 3.16 µM) | IC50 (second compound 10 µM)
inactive: viability, T/C (second compound 0.0316 µM, first compound 0.000316 µM) 87.1% | viability, T/C (second compound 0.0316 µM, first compound 0.001 µM) 93.9% | viability, T/C (second compound 0.0316 µM, first compound 0.00316 µM) 101% | viability, T/C (second compound 0.0316 µM, first compound 0.01 µM) 93.4% | viability, T/C [1] 96.1% | viability, T/C [2] 82.6% | viability, T/C (second compound 0.1 µM, first compound 0.000316 µM) 89% | viability, T/C (second compound 0.1 µM, first compound 0.001 µM) 91.7% | viability, T/C (second compound 0.1 µM, first compound 0.00316 µM) 107% | viability, T/C (second compound 0.1 µM, first compound 0.01 µM) 96.2% | viability, T/C [3] 99.7% | viability, T/C [4] 97.7% | viability, T/C (second compound 0.316 µM, first compound 0.000316 µM) 108% | viability, T/C (second compound 0.316 µM, first compound 0.001 µM) 93.3% | viability, T/C (second compound 0.316 µM, first compound 0.00316 µM) 111% | viability, T/C (second compound 0.316 µM, first compound 0.01 µM) 93.2% | viability, T/C [5] 99.8% | viability, T/C [6] 99.8% | viability, T/C (second compound 1 µM, first compound 0.000316 µM) 97.3% | viability, T/C (second compound 1 µM, first compound 0.001 µM) 102% | viability, T/C (second compound 1 µM, first compound 0.00316 µM) 87.9% | viability, T/C (second compound 1 µM, first compound 0.01 µM) 106% | viability, T/C [7] 104% | viability, T/C [8] 73.1% | viability, T/C (second compound 3.16 µM, first compound 0.000316 µM) 93.3% | viability, T/C (second compound 3.16 µM, first compound 0.001 µM) 102% | viability, T/C (second compound 3.16 µM, first compound 0.00316 µM) 88% | viability, T/C (second compound 3.16 µM, first compound 0.01 µM) 95.7% | viability, T/C [9] 102% | viability, T/C [10] 94.8% | viability, T/C (second compound 10 µM, first compound 0.000316 µM) 101% | viability, T/C (second compound 10 µM, first compound 0.001 µM) 83.6% | viability, T/C (second compound 10 µM, first compound 0.00316 µM) 97% | viability, T/C (second compound 10 µM, first compound 0.01 µM) 89.5% | viability, T/C [11] 88.6% | viability, T/C [12] 80.2%

O=C(c1cc(Cc2n[nH]c(=O)c3ccccc23)ccc1F)N1CCN(C(=O)C2CC2)CC1 + Nc1ccc(C#CCN(C(=O)Cc2ncc(C(F)(F)F)cc2C(F)(F)F)c2ccc(F)cc2)nn1
inactive: viability, T/C [1] 98.2% | viability, T/C [2] 73.7% | viability, T/C (second compound 0.0316 µM, first compound 0.316 µM) 93.5% | viability, T/C (second compound 0.0316 µM, first compound 1 µM) 90% | viability, T/C (second compound 0.0316 µM, first compound 3.16 µM) 92.1% | viability, T/C (second compound 0.0316 µM, first compound 10 µM) 75.4% | viability, T/C [3] 90.1% | viability, T/C [4] 93.5% | viability, T/C (second compound 0.1 µM, first compound 0.316 µM) 86.9% | viability, T/C (second compound 0.1 µM, first compound 1 µM) 91.3% | viability, T/C (second compound 0.1 µM, first compound 3.16 µM) 82.7% | viability, T/C (second compound 0.1 µM, first compound 10 µM) 67.1% | viability, T/C [5] 102% | viability, T/C [6] 98% | viability, T/C (second compound 0.316 µM, first compound 0.316 µM) 84% | viability, T/C (second compound 0.316 µM, first compound 1 µM) 84.1% | viability, T/C (second compound 0.316 µM, first compound 3.16 µM) 90.7% | viability, T/C (second compound 0.316 µM, first compound 10 µM) 80.2% | viability, T/C [7] 93.1% | viability, T/C [8] 93.9% | viability, T/C (second compound 1 µM, first compound 0.316 µM) 84.3% | viability, T/C (second compound 1 µM, first compound 1 µM) 88.9% | viability, T/C (second compound 1 µM, first compound 3.16 µM) 84.2% | viability, T/C (second compound 1 µM, first compound 10 µM) 76.8% | viability, T/C [9] 92.7% | viability, T/C [10] 93.7% | viability, T/C (second compound 3.16 µM, first compound 0.316 µM) 85.8% | viability, T/C (second compound 3.16 µM, first compound 1 µM) 92.2% | viability, T/C (second compound 3.16 µM, first compound 3.16 µM) 80.6% | viability, T/C (second compound 3.16 µM, first compound 10 µM) 82.6% | viability, T/C [11] 80.7% | viability, T/C [12] 85.5% | viability, T/C (second compound 10 µM, first compound 0.316 µM) 88% | viability, T/C (second compound 10 µM, first compound 1 µM) 92.7% | viability, T/C (second compound 10 µM, first compound 3.16 µM) 81.3% | viability, T/C (second compound 10 µM, first compound 10 µM) 68.7%
> 10 µM: IC50 (second compound 0.0316 µM) | IC50 (second compound 0.1 µM) | IC50 (second compound 0.316 µM) | IC50 (second compound 1 µM) | IC50 (second compound 3.16 µM) | IC50 (second compound 10 µM)
